Laboratory results published in PMC11649784, “Re-design and evaluation of diclofenac-based carborane-substituted prodrugs and their anti-cancer potential” (Scientific Reports, 2024).

Assays:
[1] = target: T1, human recombinant COX-2 (Homo sapiens, UniProt P35354); assay: COX Fluorescent Inhibitor Screening Assay, COX-2; type: biochemical
T1 construct: purchased Cayman Chemical Company, Ann Arbor, MI, USA
T1 sequence (P35354 18-604): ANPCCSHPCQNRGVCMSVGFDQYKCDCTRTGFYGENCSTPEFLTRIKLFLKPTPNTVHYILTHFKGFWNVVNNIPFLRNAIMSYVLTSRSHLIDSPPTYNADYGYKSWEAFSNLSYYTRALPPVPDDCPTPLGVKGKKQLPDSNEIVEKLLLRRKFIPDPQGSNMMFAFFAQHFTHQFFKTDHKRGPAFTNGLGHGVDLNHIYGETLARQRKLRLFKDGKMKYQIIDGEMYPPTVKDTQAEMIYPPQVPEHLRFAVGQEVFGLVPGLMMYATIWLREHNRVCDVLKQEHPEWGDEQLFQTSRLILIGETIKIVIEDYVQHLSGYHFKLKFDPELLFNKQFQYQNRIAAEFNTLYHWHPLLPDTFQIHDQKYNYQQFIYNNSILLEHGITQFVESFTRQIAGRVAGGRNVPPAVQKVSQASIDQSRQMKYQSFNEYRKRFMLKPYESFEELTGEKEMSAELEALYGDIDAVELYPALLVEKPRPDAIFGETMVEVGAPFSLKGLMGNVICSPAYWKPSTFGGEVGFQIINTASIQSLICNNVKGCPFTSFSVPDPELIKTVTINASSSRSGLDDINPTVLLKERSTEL
Method: The COX inhibition activity against ovine COX-1 and human recombinant COX-2 was determined using the COX Fluorescent Inhibitor Screening Assay Kit (Cayman Chemical Company, Ann Arbor, MI, USA) according to the manufacturer’s instructions as reported.

[2] = tested on: MC38 cells; assay: Crystal violet (CV) viability assay, MC38; type: cell-based, murine; conditions: 72 h
Method: In a preliminary test, the stability of all compounds dissolved in the cell medium (c = 100 μM, T = [drawing 47] ) for 72 h was validated by HPLC (see Supporting Information). Cell lines were incubated with the respective compounds in a concentration range of 1.56–100 μM for 72 h, and cell viability was measured using 3-(4,5-dimethylthiazol-2-yl)-2,5-diphenyltetrazolium bromide (MTT) and crystal violet (CV) assays. […] As MTT tests gave inconsistent results, possibly due to interference of the compound with mitochondrial respiration, for the further evaluation only the CV results are considered[97],[98].
The biological study was performed on a murine colon adenocarcinoma cell line (MC38), two human colorectal carcinoma cell lines (HCT116 and HT29), and a human fetal lung fibroblast cell line (MRC-5). All cell lines are commercially available and were obtained from the American Type Culture Collection (ATCC). The human cell lines were kept in HEPES-buffered RPMI-1640 medium supplemented with 10 [drawing 141] heat-inactivated FCS, 2 mM L-glutamine, 0.01 [drawing 142] sodium pyruvate, penicillin (100 units mL^−1), and, streptomycin ( [drawing 143] mL^-1). The MC38 cell line was maintained in DMEM medium additionally supplemented with 1 [drawing 144] non-essential amino acids. Cells were grown at [drawing 145] in a humidified atmosphere with 5 [drawing 146] [drawing 147] . Peritoneal exudate cells (PECs) were isolated from healthy C57BL/6 mice (males, n = 3, 3 months old, weight 22–25 g) by performing an ice-cold PBS peritoneal lavage. Mice were sacrificed by cervical dislocation. Cells were cultivated for 4 h when nonadherent population was removed by washing in PBS, and additionally cultivated overnight in HEPES-buffered RPMI-1640 medium supplemented with 5 [drawing 148] heat-inactivated FCS before treatment with experimental drugs. Animal handling and protocol for isolation of PECs were performed according to European Union rules, and the ARRIVE guidelines 2.0.
For the viability tests, MC38, HCT116, and HT29 cells were seeded in 96-well plates at a density of 2 [drawing 149] 103, 5 [drawing 150] 103, and 6 [drawing 151] 10^3 cells/well, respectively. To determine whether the drug affected the viability of healthy, non-malignant cells, MRC-5 and PECs were seeded in 96-well plates at a density of 8 [drawing 152] 103 and 2 [drawing 153] 10^5 cells/well, respectively. For the flow cytometric analyses, MC38 cells were seeded in 6-well plates at 5 [drawing 154] 10^4 cells/well. For morphological assessment of nuclei and the detection of autophagy, MC38 cells were seeded in 2-well chamber slides at 1.5 [drawing 155] 10^4 cells/well.
After 72 h, cell viability was determined using MTT and CV tests. First, the supernatant from the wells was discarded and the cells were incubated with an MTT solution (0.5 mg mL^−1). After half an hour, the purple formazan crystals formed were dissolved in DMSO. For CV staining of the cells, the cells were fixed with 4 [drawing 157] PFA for 10 min and then stained with a 0.02 [drawing 158] CV solution for 15 min, all at room temperature (RT). The cells were then washed with tap water, air-dried and the dye was dissolved in 33 [drawing 159] acetic acid. For both viability tests, the absorbance of the developed colors was measured using an automated microplate reader at 570 nm with a reference wavelength of 670 nm. The results were expressed as a percentage of the control values of the untreated cells, which were arbitrarily set at 100 [drawing 160] . IC50 values, defined as 50 [drawing 161] inhibitory concentration, were calculated using a four-parameter logistic function and presented as mean±SD. All biological experiments were performed in triplicates. To evaluate the nature of the detected autophagy, a combined treatment with compound 3 and the autophagy inhibitors chloroquine (Chlq) and 3-methyladenine (3-MA) was carried out. […] After 72 h, cell viability was determined by CV assay.

Substance: 1-[2-(7,8-dicarba-nido-undecaborate)]- [drawing 126] H-indolium-2-amine [compound 3]
- %Inh. @ 100 μM (n = 2) COX-2 ([1]; 100 μM): 105%
- IC50 ([1]; absolute IC50, 0.1 to 100 μM in duplicate, 95% CI in brackets): 4.58 µM
- COX inhibition, in words ([1]; in vitro COX assay, COX-1 and COX-2): moderately active COX-inhibitors
- SI1/2 = IC50(COX-1)/IC50(COX-2) ([1]; selectivity index): 3.3
- IC50 ([2]; mean±SD, read-out: IC50 [μM] (n = 3) MC38 CV): 9.5 ± 0.4 µM
- cell viability on co-treatment with 3-methyladenine (3-MA) ([2]; IC50 concentration of 3 plus 3-MA 1 mM, CV assay): further viability decrease
- cell viability on co-treatment with chloroquine (Chlq) ([2]; IC50 concentration of 3 plus Chlq 20 μM, CV assay): further viability decrease
